Results published in patent US10913744B2, “LRRK2 inhibitors and methods of making and using the same” (Dana-Farber Cancer Institute, Inc., priority 2015, dated 2021).
Like-named read-outs stand apart in the source and are kept apart here.

Experiments:
wild type LRRK2 = wild type LRRK2 (Homo sapiens (Human), UniProt Q5S007); assay: LRRK2 enzyme kinase assay, wild type; type: biochemical
LRRK2[G2019S] = LRRK2[G2019S] (Homo sapiens (Human), UniProt Q5S007, G2019S); assay: LRRK2 enzyme kinase assay, G2019S; type: biochemical
LRRK2[G2019S], sequence (Q5S007 1326-2527 G2019S): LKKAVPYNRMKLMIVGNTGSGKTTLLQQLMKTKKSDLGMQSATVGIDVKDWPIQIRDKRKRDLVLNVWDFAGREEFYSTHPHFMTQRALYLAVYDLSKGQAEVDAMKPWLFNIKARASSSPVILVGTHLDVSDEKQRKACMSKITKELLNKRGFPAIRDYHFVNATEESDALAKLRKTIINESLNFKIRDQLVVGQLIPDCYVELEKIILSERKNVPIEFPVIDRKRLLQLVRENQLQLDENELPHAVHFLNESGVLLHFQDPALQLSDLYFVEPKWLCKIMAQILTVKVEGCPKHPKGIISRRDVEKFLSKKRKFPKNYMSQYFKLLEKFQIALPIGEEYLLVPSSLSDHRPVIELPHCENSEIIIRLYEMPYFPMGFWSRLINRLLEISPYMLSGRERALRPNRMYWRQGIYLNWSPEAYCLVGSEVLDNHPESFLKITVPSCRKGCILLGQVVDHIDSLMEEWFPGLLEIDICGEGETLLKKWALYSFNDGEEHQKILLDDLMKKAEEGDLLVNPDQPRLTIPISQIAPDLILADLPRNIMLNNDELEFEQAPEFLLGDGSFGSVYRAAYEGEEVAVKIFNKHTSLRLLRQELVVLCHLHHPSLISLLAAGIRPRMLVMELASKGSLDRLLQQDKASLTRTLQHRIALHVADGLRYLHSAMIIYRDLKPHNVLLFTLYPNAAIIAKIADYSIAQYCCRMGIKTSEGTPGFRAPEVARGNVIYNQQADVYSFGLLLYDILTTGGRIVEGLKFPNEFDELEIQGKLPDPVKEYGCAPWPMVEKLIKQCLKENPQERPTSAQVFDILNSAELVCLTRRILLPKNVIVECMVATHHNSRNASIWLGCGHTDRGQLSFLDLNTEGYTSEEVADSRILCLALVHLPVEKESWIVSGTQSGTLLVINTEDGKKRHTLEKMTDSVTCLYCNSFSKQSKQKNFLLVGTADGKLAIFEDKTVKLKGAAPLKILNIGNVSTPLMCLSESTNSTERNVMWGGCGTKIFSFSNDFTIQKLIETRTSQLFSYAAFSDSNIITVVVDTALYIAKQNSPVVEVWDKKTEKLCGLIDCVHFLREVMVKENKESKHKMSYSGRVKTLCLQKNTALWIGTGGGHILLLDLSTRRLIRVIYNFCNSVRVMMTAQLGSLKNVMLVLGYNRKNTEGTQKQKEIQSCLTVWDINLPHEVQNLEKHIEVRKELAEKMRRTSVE

[1] = target: GST-LRRK2(1,326-2,517) wild-type (Homo sapiens (Human), UniProt Q5S007); assay: Nictide peptide kinase assay, 100 μM ATP; type: biochemical; details: 20 μM Nictide
GST-LRRK2(1,326-2,517) wild-type, sequence (Q5S007 1326-2527): as the sequence (Q5S007 1326-2527 G2019S) above, with S694G counted along it
Method: (§1) Assay procedures are further discussed in Section 4 herein.
(§2) Samples were washed extensively and the incorporation of [γ-32P]ATP into Nictide was quantified by Cerenkov counting. IC50 values were calculated with GraphPad Prism using non-linear regression analysis.

[2] = target: GST-LRRK2[A2016T](1326-2517) (Homo sapiens (Human), UniProt Q5S007, A2016T); assay: Nictide peptide kinase assay, 100 μM ATP; type: biochemical; details: 20 μM Nictide
GST-LRRK2[A2016T](1326-2517), sequence (Q5S007 1326-2527 A2016T): as the sequence (Q5S007 1326-2527 G2019S) above, with A691T, S694G counted along it
Method: as §1, §2

[3] = target: GST-LRRK2[G2019S + A2016T](1,326-2,517) (Homo sapiens (Human), UniProt Q5S007, A2016T/G2019S); assay: Nictide peptide kinase assay, 100 μM ATP; type: biochemical; details: 20 μM Nictide
GST-LRRK2[G2019S + A2016T](1,326-2,517), sequence (Q5S007 1326-2527 A2016T/G2019S): as the sequence (Q5S007 1326-2527 G2019S) above, with A691T counted along it
Method: as §1, §2

[4] = target: GST-LRRK2[G2019S](1,326-2,527) (Homo sapiens (Human), UniProt Q5S007, G2019S); assay: Nictide peptide kinase assay, 100 μM ATP; type: biochemical; details: 20 μM Nictide
GST-LRRK2[G2019S](1,326-2,527), sequence (Q5S007 1326-2527 G2019S): as the sequence (Q5S007 1326-2527 G2019S) above
Method: as §1, §2

LRRK2 [5] = details: G2019S LRRK2 transgenic mice, oral dosing; cited from earlier work
LRRK2 [6] = target: LRRK2 (Mus musculus (Mouse), UniProt Q5S006); assay: Pharmacodynamic study, LRRK2 Ser910/Ser935 phosphorylation in mouse kidney, spleen and brain; type: in vivo
LRRK2 (Mus musculus (Mouse), UniProt Q5S006), sequence (Q5S006 whole entry, looked up): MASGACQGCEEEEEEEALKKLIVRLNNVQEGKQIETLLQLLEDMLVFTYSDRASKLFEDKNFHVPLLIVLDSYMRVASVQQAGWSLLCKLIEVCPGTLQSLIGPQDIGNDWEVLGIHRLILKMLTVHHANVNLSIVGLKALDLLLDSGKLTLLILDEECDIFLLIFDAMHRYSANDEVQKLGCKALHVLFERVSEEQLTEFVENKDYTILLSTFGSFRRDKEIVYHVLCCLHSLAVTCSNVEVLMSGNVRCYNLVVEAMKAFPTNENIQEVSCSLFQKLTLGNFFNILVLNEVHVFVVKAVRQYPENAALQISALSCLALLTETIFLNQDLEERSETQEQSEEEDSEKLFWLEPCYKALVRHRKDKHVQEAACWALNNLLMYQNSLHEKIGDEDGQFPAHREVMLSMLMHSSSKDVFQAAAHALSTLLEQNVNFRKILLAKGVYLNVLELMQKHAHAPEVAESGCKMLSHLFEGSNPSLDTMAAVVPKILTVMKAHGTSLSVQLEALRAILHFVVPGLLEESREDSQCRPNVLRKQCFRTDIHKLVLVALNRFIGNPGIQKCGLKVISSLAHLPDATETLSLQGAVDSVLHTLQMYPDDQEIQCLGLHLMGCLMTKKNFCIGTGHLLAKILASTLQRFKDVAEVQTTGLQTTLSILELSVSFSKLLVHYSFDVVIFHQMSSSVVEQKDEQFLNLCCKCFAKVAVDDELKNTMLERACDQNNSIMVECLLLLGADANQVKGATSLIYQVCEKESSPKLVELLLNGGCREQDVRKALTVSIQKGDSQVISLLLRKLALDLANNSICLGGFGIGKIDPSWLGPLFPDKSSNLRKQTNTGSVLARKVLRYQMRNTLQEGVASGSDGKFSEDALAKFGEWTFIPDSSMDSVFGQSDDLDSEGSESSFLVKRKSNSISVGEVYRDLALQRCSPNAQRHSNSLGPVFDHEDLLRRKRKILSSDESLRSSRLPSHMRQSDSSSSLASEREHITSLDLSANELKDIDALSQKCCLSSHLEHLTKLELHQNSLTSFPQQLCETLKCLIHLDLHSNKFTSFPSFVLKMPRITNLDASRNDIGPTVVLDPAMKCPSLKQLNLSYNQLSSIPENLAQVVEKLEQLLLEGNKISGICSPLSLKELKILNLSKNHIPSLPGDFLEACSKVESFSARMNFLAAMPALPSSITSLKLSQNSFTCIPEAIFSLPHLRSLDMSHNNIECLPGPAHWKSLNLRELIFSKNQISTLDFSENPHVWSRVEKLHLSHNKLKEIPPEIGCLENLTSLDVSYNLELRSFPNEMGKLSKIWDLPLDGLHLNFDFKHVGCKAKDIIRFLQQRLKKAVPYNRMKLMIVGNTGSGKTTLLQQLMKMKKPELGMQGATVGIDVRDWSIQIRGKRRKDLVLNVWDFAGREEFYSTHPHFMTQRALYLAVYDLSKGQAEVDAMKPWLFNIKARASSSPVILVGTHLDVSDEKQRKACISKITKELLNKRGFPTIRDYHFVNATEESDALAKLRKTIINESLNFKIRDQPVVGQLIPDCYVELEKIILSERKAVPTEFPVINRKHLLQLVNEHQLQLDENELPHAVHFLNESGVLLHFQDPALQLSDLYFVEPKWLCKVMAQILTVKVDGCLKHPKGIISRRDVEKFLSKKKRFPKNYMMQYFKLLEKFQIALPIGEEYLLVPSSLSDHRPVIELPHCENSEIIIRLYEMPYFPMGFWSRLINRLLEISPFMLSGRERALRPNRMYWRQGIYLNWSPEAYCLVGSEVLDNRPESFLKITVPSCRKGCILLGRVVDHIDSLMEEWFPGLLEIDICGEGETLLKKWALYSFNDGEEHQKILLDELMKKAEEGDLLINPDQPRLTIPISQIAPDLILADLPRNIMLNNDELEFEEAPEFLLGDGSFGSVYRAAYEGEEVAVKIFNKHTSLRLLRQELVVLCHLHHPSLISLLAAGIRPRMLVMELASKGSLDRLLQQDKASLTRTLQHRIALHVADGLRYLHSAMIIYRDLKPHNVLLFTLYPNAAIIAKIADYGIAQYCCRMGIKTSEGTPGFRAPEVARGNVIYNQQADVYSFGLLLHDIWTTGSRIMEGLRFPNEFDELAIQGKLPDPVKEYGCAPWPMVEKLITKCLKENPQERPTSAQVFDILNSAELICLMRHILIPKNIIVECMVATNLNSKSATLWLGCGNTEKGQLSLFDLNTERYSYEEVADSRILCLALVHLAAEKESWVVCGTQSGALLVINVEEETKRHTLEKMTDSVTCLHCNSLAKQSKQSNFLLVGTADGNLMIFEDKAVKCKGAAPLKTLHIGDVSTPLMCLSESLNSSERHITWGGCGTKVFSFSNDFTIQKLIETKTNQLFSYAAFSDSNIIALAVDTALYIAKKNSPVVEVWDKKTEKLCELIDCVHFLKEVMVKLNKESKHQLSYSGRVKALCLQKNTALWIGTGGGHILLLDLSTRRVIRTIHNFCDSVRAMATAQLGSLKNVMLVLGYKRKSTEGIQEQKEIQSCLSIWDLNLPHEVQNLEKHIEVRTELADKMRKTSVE

[7] = Table 3, read-out: Enzyme IC50 WT
[8] = Table 1, ATP at Km 36 μm, read-out: Enzyme IC50 wt

wild type LRRK2, sequence (Q5S007 1326-2527): as the sequence (Q5S007 1326-2527 G2019S) above, with S694G counted along it

| Compound | IC50 (wild type LRRK2; [8]) [nM] | IC50 (LRRK2[G2019S]; Table 1, ATP at Km 112 μm) [nM] | other results |
| --- | --- | --- | --- |
| COc1cc(C(=O)N2CCOCC2)ccc1Nc1nc(OC)c2cn[nH]c2n1 [Compound 24, (3-methoxy-4-((4-methoxy-1H-pyrazolo[3,4-d]pyrimidin-6-yl)amino)phenyl) (morpholino)methanone] |  |  | IC50 (wild type LRRK2; [7]): 19.4 nM; IC50 (LRRK2[G2019S]; Table 3): 18.5 nM |
| CCCNc1nc(Nc2ccc(C(=O)N3CCOCC3)cc2OC)nc2[nH]ccc12 [Compound 13] | 1.6 | 2.4 |  |
| COc1cc(C(=O)N2CCOCC2)ccc1Nc1nc(NCC2CCCO2)c2cc[nH]c2n1 (stereo not shown) [Compound 14] | 3.3 | 4.4 |  |
| COc1cc(C(=O)N2CCC(N3CCN(C)CC3)CC2)ccc1Nc1ncc2c(n1)N(C)c1ccccc1C(=O)N2C [LRRK2-IN-1] |  |  | IC50 [1]: 13 nM; IC50 [2]: 2450 nM; IC50 [3]: 3080 nM; IC50 [4]: 6 nM |
| CCNc1nc(Nc2ccc(C(=O)N3CCOCC3)cc2OC)nc2[nH]cc(Cl)c12 [Compound 19] | 1.4 | 4.4 |  |
| CNc1nc(Nc2ccc(C(=O)N3CCOCC3)cc2OC)ncc1Cl [HG-10-102-01] |  |  | reduction of LRRK2 activity in brain (Ser935 phosphorylation) (LRRK2 [5]): significantly reduce LRRK2 activity in the brain |
| COc1cc(C(=O)N2CCOCC2)ccc1Nc1nc(OC)c2nc[nH]c2n1 [Compound 22, (3-methoxy-4-((6-methoxy-9H-purin-2-yl)amino)phenyl)(morpholino)methanone] |  |  | IC50 (wild type LRRK2; [7]): 3 nM; IC50 (LRRK2[G2019S]; Table 3): 3 nM |
| CCNc1nc(Nc2ccc(C(=O)N3CCOCC3)cc2OC)nc2[nH]ccc12 [Compound 12] | 1.1 | 2.5 |  |
| CCCNc1nc(Nc2ccc(C(=O)N3CCOCC3)cc2OC)nc2[nH]cc(Cl)c12 [Compound 20] | 7.7 | 12.4 |  |
| CNc1nc(Nc2cc(F)c(C(=O)N3CCOCC3)cc2OC)nc2[nH]ccc12 [Compound 16] | 2.1 | 7.1 |  |
| COCCNc1nc(Nc2ccc(C(=O)N3CCOCC3)cc2OC)nc2[nH]ccc12 [Compound 11] | 4 | 3 |  |
| CCNc1nc(Nc2cc(F)c(C(=O)N3CCOCC3)cc2OC)ncc1C(F)(F)F [GNE7915, reference compound] |  |  | dephosphorylation of Ser935 of LRRK2 in kidney, spleen and brain (LRRK2 [6]; 100 mg/kg, intraperitoneal): near complete dephosphorylation of Ser935 of LRRK2; dose at which complete inhibition in brain was observed (LRRK2 [6]; doses 10, 30, 50, 100 mg/kg): 100 mg/kg; reduction of LRRK2 activity in brain (Ser935 phosphorylation) (LRRK2 [5]): significantly reduce LRRK2 activity in the brain |
| COc1cc(C(=O)N2CCOCC2)ccc1Nc1nc(OC)c2cc[nH]c2n1 [Compound 9, (3-methoxy-4-((4-methoxy-7H-pyrrolo[2,3-d]pyrimidin-2-yl)amino)phenyl) (morpholino)methanone] | 13.6 | 95.7 |  |
| COc1cc(C(=O)N2CCOCC2)ccc1Nc1ncc2cc[nH]c2n1 [Compound 10] | 34 | 40 |  |
| COc1cc(C(=O)N2CCOCC2)ccc1Nc1nc(NC2CC2)c2cc[nH]c2n1 [Compound 15] | 2.4 | 4.7 |  |
| N#Cc1cccc(-c2c[nH]c3ncnc(N4CCOCC4)c23)c1 [PF-06447474] |  |  | reduction of LRRK2 activity in brain (Ser935 phosphorylation) (LRRK2 [5]): capable of reducing LRRK2 activity in the brain |
| O=C(Nc1cccnc1)c1cc(-c2ccnc(F)c2)ccc1OCc1ccccc1 [GSK2578215A] |  |  | IC50 [1]: 10.9 nM; IC50 [2]: 81.1 nM; IC50 [3]: 61.3 nM; IC50 [4]: 8.9 nM |
| CNc1nc(Nc2ccc(C(=O)N3CCOCC3)cc2OC)nc2[nH]cnc12 [Compound 21, (3-methoxy-4-((6-(methylamino)-9H-purin-2-yl)amino)phenyl)(morpholino) methanone] |  |  | IC50 (wild type LRRK2; [7]): 35 nM; IC50 (LRRK2[G2019S]; Table 3): 44 nM |
| COc1cc(C(=O)N2CCOCC2)ccc1Nc1ncc2c(Cl)c[nH]c2n1 [Compound 17] | 159 | 108 |  |
| (3-methoxy-4-((4-(methylamino)-1H-pyrazolo[3,4-d]pyrimidin-6-yl)amino)phenyl)(morpholino)methanone [Compound 23] |  |  | IC50 (wild type LRRK2; [7]): 11.5 nM; IC50 (LRRK2[G2019S]; Table 3): 4 nM |
